Activity calls are given as the source filed them. No cut-off for these calls is given here.
Experiments:
[1] = target: T1, Serine/threonine-protein kinase mTOR (Homo sapiens, UniProt P42345); experiment: Inhibition of mTOR in human MDA-MB-468 cells assessed as reduction in phosphorylation of mTOR at Ser2448 residue at 0.5 to 2 uM after 24 hrs by Western blot analysis; assay type: cell-based; details: dose 0.5-2 µM
MDA-MB-231 [2] = experiment: Induction of apoptosis in human MDA-MB-231 cells assessed as early apoptotic cells at 2.5 uM after 24 hrs by AnnexinV-FITC/PI staining based flow cytometry analysis (reference value: 2.63%); assay type: functional
MDA-MB-231 [3] = experiment: Induction of apoptosis in human MDA-MB-231 cells assessed as early apoptotic cells at 10 uM after 24 hrs by AnnexinV-FITC/PI staining based flow cytometry analysis (reference value: 2.43 to 2.63%); assay type: functional
MDA-MB-468 [4] = experiment: Induction of apoptosis in human MDA-MB-468 cells assessed as necrotic cells at 5 uM after 24 hrs by AnnexinV-FITC/PI staining based flow cytometry analysis (reference value: 1.56%); assay type: functional
[5] = target: T1, Serine/threonine-protein kinase mTOR; experiment: Inhibition of mTOR in human MDA-MB-468 cells assessed as reduction in p-4EBP1(Thr37/46) protein level at 0.5 to 2 uM after 24 hrs by Western blot analysis; assay type: cell-based; details: dose 0.5-2 µM
MDA-MB-468 [6] = experiment: Induction of apoptosis in human MDA-MB-468 cells assessed as late apoptic cells at 5 uM after 24 hrs by AnnexinV-FITC/PI staining based flow cytometry analysis (reference value: 2.84%); assay type: functional
MDA-MB-468 [7] = experiment: Induction of autophagy in human MDA-MB-468 cells expressing mRFP-EGFP-LC3B at 5 uM measured after 24 hrs by fluorescence microscopic analysis; assay type: functional, cell-based
MDA-MB-468 [8] = experiment: Antiproliferative activity against human MDA-MB-468 cells measured after 24 hrs by Hoechst 33258 dye based fluorescence microscopic analysis; assay type: functional, cell-based; details: dose 2.5-10 µM
MDA-MB-468 [9] = experiment: Induction of apoptosis in human MDA-MB-468 cells assessed as increase in Bax level at 2.5 to 10 uM incubated for 24 hrs by western blot analysis; assay type: functional, cell-based; details: dose 2.5-10 µM
MDA-MB-231 [10] = experiment: Induction of apoptosis in human MDA-MB-231 cells assessed as viable cells at 2.5 uM after 24 hrs by AnnexinV-FITC/PI staining based flow cytometry analysis (reference value: 96.45%); assay type: functional; details: read-out: Activity
MDA-MB-468 [11] = experiment: Antiproliferative activity against human MDA-MB-468 cells assessed as inhibition of cell viability at 5 uM preincubated with autophagy inhibitor, 3-methyladenine for 1 hr followed by compound addition and measured after 24 hrs by MTT assay; assay type: functional, cell-based
MDA-MB-468 [12] = experiment: Induction of apoptosis in human MDA-MB-468 cells assessed as necrotic cells at 2.5 uM after 24 hrs by AnnexinV-FITC/PI staining based flow cytometry analysis (reference value: 1.56%); assay type: functional
[13] = target: T1, Serine/threonine-protein kinase mTOR; experiment: Inhibition of mTOR in human MDA-MB-231 cells assessed as reduction in p70S6K(Thr389) protein level at 0.5 to 2 uM after 24 hrs by Western blot analysis; assay type: cell-based; details: dose 0.5-2 µM
MDA-MB-468 [14] = experiment: Induction of apoptosis in human MDA-MB-468 cells assessed as late apoptic cells at 10 uM after 24 hrs by AnnexinV-FITC/PI staining based flow cytometry analysis (reference value: 0.87 to 2.84%); assay type: functional
MDA-MB-231 [15] = experiment: Induction of apoptosis in human MDA-MB-231 cells assessed as late apoptotic cells at 10 uM after 24 hrs by AnnexinV-FITC/PI staining based flow cytometry analysis (reference value: 0.84 to 1.59%); assay type: functional
MDA-MB-468 [16] = experiment: Induction of apoptosis in human MDA-MB-468 cells assessed as early apoptic cells at 2.5 uM after 24 hrs by AnnexinV-FITC/PI staining based flow cytometry analysis (reference value: 0.51%); assay type: functional
[17] = target: T1, Serine/threonine-protein kinase mTOR; experiment: Inhibition of mTOR in human MDA-MB-468 cells assessed as reduction in total 4EBP1 protein level at 0.5 to 2 uM after 24 hrs by Western blot analysis; assay type: cell-based; details: dose 0.5-2 µM
[18] = target: T1, Serine/threonine-protein kinase mTOR; experiment: Inhibition of mTOR in human MDA-MB-231 cells assessed as reduction in phosphorylation of mTOR at Ser2448 residue at 0.5 to 2 uM after 24 hrs by Western blot analysis; assay type: cell-based; details: dose 0.5-2 µM
MDA-MB-231 [19] = experiment: Induction of apoptosis in human MDA-MB-231 cells assessed as increase in cleaved caspase 3 level at 2.5 to 10 uM incubated for 24 hrs by western blot analysis; assay type: functional, cell-based; details: dose 2.5-10 µM
MDA-MB-231 [20] = experiment: Induction of apoptosis in human MDA-MB-231 cells assessed as late apoptotic cells at 2.5 uM after 24 hrs by AnnexinV-FITC/PI staining based flow cytometry analysis (reference value: 0.84%); assay type: functional
MDA-MB-231 [21] = experiment: Induction of apoptosis in human MDA-MB-231 cells assessed as necrotic cells at 5 uM after 24 hrs by AnnexinV-FITC/PI staining based flow cytometry analysis (reference value: 0.083%); assay type: functional
MDA-MB-468 [22] = experiment: Induction of apoptosis in human MDA-MB-468 cells assessed as viable cells at 10 uM after 24 hrs by AnnexinV-FITC/PI staining based flow cytometry analysis (reference value: 95.1 to 96.3%); assay type: functional; details: read-out: Activity
MDA-MB-231 [23] = experiment: Inhibition of colony formation in human MDA-MB-231 cells at 10 uM incubated for 14 days in presence of autophagy inhibitor, 3-methyladenine by crystal violet staining based analysis; assay type: functional, cell-based; details: time 14.0 day
[24] = target: T1, Serine/threonine-protein kinase mTOR; experiment: Inhibition of mTOR in human MDA-MB-468 cells assessed as reduction in p-AKT(Ser473) protein level at 0.5 to 2 uM after 24 hrs by Western blot analysis; assay type: cell-based; details: dose 0.5-2 µM
MDA-MB-231 [25] = experiment: Inhibition of colony formation in human MDA-MB-231 cells measured after 14 days by crystal violet staining based assay; assay type: functional, cell-based; details: dose 5-10 µM, time 14.0 day
[26] = target: T1, Serine/threonine-protein kinase mTOR; experiment: Inhibition of mTOR (unknown origin)
MDA-MB-231 [27] = experiment: Induction of autophagy in human MDA-MB-231 cells assessed as increase in LC3-II protein level at 2.5 to 10 uM incubated for 24 hrs by Western blot analysis; assay type: functional, cell-based; details: dose 2.5-10 µM
[28] = target: T1, Serine/threonine-protein kinase mTOR; experiment: Inhibition of mTOR in human MDA-MB-231 cells assessed as reduction in total 4EBP1 protein level at 0.5 to 2 uM after 24 hrs by Western blot analysis; assay type: cell-based; details: dose 0.5-2 µM
MDA-MB-231 [29] = experiment: (§1) Induction of apoptosis in human MDA-MB-231 cells assessed as viable cells at 10 uM pretreated with autophagy inhibitor, 3-methyladenine for 1 hr followed by incubation with compound and measured after 24 hrs by Annexin V-FITC/propidium iodide staining based flow cytometry (reference value: 92.7%); assay type: functional; details: read-out: Activity
MDA-MB-231 [30] = experiment: Induction of autophagy in human MDA-MB-231 cells assessed as reduction in p62 protein level at 2.5 to 10 uM incubated for 24 hrs by Western blot analysis; assay type: functional, cell-based; details: dose 2.5-10 µM
MDA-MB-468 [31] = experiment: Inhibition of colony formation in human MDA-MB-468 cells at 10 uM incubated for 14 days in presence of autophagy inhibitor, 3-methyladenine by crystal violet staining based analysis; assay type: functional, cell-based; details: time 14.0 day
MDA-MB-231 [32] = experiment: Induction of autophagy in human MDA-MB-231 cells assessed as increase in Beclin-1 protein level at 2.5 to 10 uM incubated for 24 hrs by Western blot analysis; assay type: functional, cell-based; details: dose 2.5-10 µM
MDA-MB-231 [33] = experiment: as §1, with “early apoptotic” for “viable”, “3.81%)” for “92.7%)”; assay type: functional; design: scale not given: the % may be the effect or the level left

inhibition [1]: Active | inhibition [5]: Active | inhibition [13]: Active | inhibition [17]: Active | inhibition [18]: Active | inhibition [24]: Active | IC50 [26]: 304 nM | inhibition [28]: Active
SMILES: C/C(=N\NC(=O)c1cccc(Br)c1)c1ccc(C(=O)Nc2nc3ccccc3[nH]2)cc1
Activity (MDA-MB-231 [2]): 6.84% | Activity (MDA-MB-231 [3]): 12.9% | Activity (MDA-MB-468 [4]): 0.87% | Activity (MDA-MB-468 [6]): 5.16% | Activity (MDA-MB-468 [7]): Active | Activity (MDA-MB-468 [8]): Dose-Dependent Effect | Activity (MDA-MB-468 [9]): Active | viability at 2.5 µM (MDA-MB-231 [10]): 90.1% | Activity (MDA-MB-468 [11]): Active | Activity (MDA-MB-468 [12]): 1.89% | Activity (MDA-MB-468 [14]): 12.3% | Activity (MDA-MB-231 [15]): 5.71% | Activity (MDA-MB-468 [16]): 3.35% | Activity (MDA-MB-231 [19]): Active | Activity (MDA-MB-231 [20]): 2.96% | Activity (MDA-MB-231 [21]): 0.099% | viability at 10 µM (MDA-MB-468 [22]): 60.5% | inhibition (MDA-MB-231 [23]): Active | inhibition (MDA-MB-231 [25]): Dose-Dependent Effect | Activity (MDA-MB-231 [27]): Active | viability at 10 µM (MDA-MB-231 [29]): 86.3% | Activity (MDA-MB-231 [30]): Active | inhibition (MDA-MB-468 [31]): Active | Activity (MDA-MB-231 [32]): Active | Activity (MDA-MB-231 [33]): 6.1%
